Measurements from US4645769A, “1-oxa-1-dethia-cephalosporin compounds and antibacterial agent comprising the same” (Merck & Co., Inc., priority 1985, dated 1987).
Structures can show the parent of a compound that is named as a salt.

Assays:
[1] = tested on: Pseudomonas aeruginosa E-2; assay: Minimum Inhibitory Concentration (MIC), antibacterial spectrum in vitro; assay type: cell-based; settings: E2; Pseudomonas aeruginosa E-2; read-out: Minimum Inhibitory Concentration (MIC)
[2] = tested on: Pseudomonas aeruginosa RPL-11; assay: as above; assay type: cell-based; settings: RPL11; Pseudomonas aeruginosa RPL-11; read-out: Minimum Inhibitory Concentration (MIC)
[3] = tested on: Klebsiella pneumoniae PCI 602; assay: as above; assay type: cell-based; settings: PCI602; Klebsiella pneumoniae PCI 602; read-out: Minimum Inhibitory Concentration (MIC)
[4] = tested on: Staphylococus aureus (Smith I); assay: Efficacy in Mice Infected with Staphylococus aureus (Smith I); assay type: in vivo; settings: Staphylococcus aureus, sc, 168 h, St. aureus (Smith I) intraperitoneal infection, single subcutaneous dose one hour after infection, 7 days
From the text: (§1) A systemic infection was produced by intraperitoneal injection of the appropriate pathogen to mice (five male mice in each group, average body weight 20 g), and the mice were received single subcutaneous dose of the compound one hour after the infection.

[5] = tested on: Pseudomonas aeruginosa (GN 10362); assay: Efficacy in Mice Infected with Pseudomonas aeruginosa (GN 10362); assay type: in vivo; settings: GN10362, sc, 168 h, Ps. aeruginosa (GN 10362) intraperitoneal infection, mice, single subcutaneous dose one hour after infection, 7 days, read-out: ED 50
From the text: as §1

Esherichia coli TEM DC-2 = assay: Minimum Inhibitory Concentration (MIC), antibacterial spectrum in vitro; assay type: cell-based; settings: read-out: Minimum Inhibitory Concentration (MIC)
[6] = tested on: Staphylococcus aureus 209 P JC-1; assay: as above; assay type: cell-based; settings: 209PJC1; Staphylococcus aureus 209 P JC-1; read-out: Minimum Inhibitory Concentration (MIC)
[7] = tested on: Citrobacter freundii GN-346; assay: as above; assay type: cell-based; settings: GN346; Citrobacter freundii GN-346; read-out: Minimum Inhibitory Concentration (MIC)
Pseudomonas aeruginosa = assay: Antibacterial activity against Pseudomonas aeruginosa (from Table 1); assay type: cell-based; settings: in words
[8] = tested on: Esherichia coli NIHJ JC-2; assay: Minimum Inhibitory Concentration (MIC), antibacterial spectrum in vitro; assay type: cell-based
[9] = tested on: Streptococcus faecalis ATCC 8043; assay: as above; assay type: cell-based; settings: Enterococcus faecalis, ATCC8043; Streptococcus faecalis ATCC 8043; read-out: Minimum Inhibitory Concentration (MIC)
[10] = Concentration in Blood Serum after subcutaneous dosing (bioassay using Escherichia coli); assay type: in vivo; settings: mouse, sc, 25 mg/Kg subcutaneously, mice
Procedure: The concentration of the compound in the serum was determined by bioassay using Escherichia coli as assay microorganism.

[11] = tested on: Salmonella typhimurium LT-2; assay: Minimum Inhibitory Concentration (MIC), antibacterial spectrum in vitro; assay type: cell-based; settings: Salmonella enterica; Salmonella typhimurium LT-2; read-out: Minimum Inhibitory Concentration (MIC)
[12] = tested on: Pseudomonas aeruginosa MB-3833; assay: as above; assay type: cell-based; settings: MB3833; Pseudomonas aeruginosa MB-3833; read-out: Minimum Inhibitory Concentration (MIC)
Proteus morganii 1510 = assay: as above; assay type: cell-based; settings: Morganella morganii; Proteus morganii 1510; read-out: Minimum Inhibitory Concentration (MIC)
Enterobacter cloacae P99 = assay: as above; assay type: cell-based; settings: P99, read-out: Minimum Inhibitory Concentration (MIC)

In the case of `C[n+]1ccc(SCC2=C(C(=O)[O-])N3C(=O)C(NC(=O)C(=NOC(C)(C)C(=O)O)c4csc(N)n4)C3OC2)cc1` [Compound 14, (6R,7R)-7-((Z)-2-(2-Aminothiazole-4-yl)-2-(2-carboxyprop-2-oxyimino)acetamide-3-(1-methylpyridinium-4-yl-thiomethyl)-1-oxa-1-dethiaceph-3-em-4-carboxylate (Sodium Salt)], the MIC [1] is reported as 1.56 µg/mL, the MIC [2] is reported as 64 µg/mL and the MIC [3] is reported as 0.1 µg/mL. It also gave an ED50 [4] of 0.016 mg/kg, an ED50 [5] of 0.13 mg/kg and an MIC (Esherichia coli TEM DC-2) of 0.25 µg/mL. The MIC [6] was 1.56 µg/mL, the MIC [7] was 50 µg/mL and the “effectiveness against Pseudomonas aeruginosa” value (Pseudomonas aeruginosa) was “effective against Pseudomonas aeruginosa”. The MIC [8] was 0.1 µg/mL, the MIC [9] was greater than 100 µg/mL and the concentration at 0.5 h ([10]; 1/2 hour) was 8800 ng/mL. The concentration at 0.25 h ([10]; 1/4 hour) was 11500 ng/mL, the concentration at 5 min ([10]; 1/12 hour) was 18000 ng/mL and the concentration at 1 h ([10]; 1 hour) was 5000 ng/mL. The MIC [11] was less than 0.025 µg/mL, the MIC [12] was 1.56 µg/mL and the MIC (Proteus morganii 1510) was 3.13 µg/mL. The MIC (Enterobacter cloacae P99) was 128 µg/mL.
